Measured values from PubChem BioAssay AID1259407 (Chemical Carcinogenesis Research Information System (CCRIS), 2018).
Activity calls are given as the source filed them. The rule behind the calls is not given here.

Test system: CCRIS mutagenicity, Ames/micronucleus/aberration tests
Assay: CCRIS mutagenicity studies
[1] = Test System: AMES SALMONELLA TYPHIMURIUM, Strain/Indicator: TA98, Metabolic Activation: NONE, Method: STANDARD PLATE
[2] = Test System: AMES SALMONELLA TYPHIMURIUM, Strain/Indicator: TA100, Metabolic Activation: NONE, Method: STANDARD PLATE
[3] = Test System: AMES SALMONELLA TYPHIMURIUM, Strain/Indicator: TA100, Metabolic Activation: NONE, Method: PREINCUBATION
[4] = Test System: AMES SALMONELLA TYPHIMURIUM, Strain/Indicator: TA100, Metabolic Activation: RAT, LIVER, S-9, AROCLOR, Method: PREINCUBATION

## COc1cc([C@H]2OC[C@H]3[C@@H]2CO[C@@H]3c2cc(OC)c(OC)c(OC)c2)cc(OC)c1OC
Test System: AMES SALMONELLA TYPHIMURIUM, Strain/Indicator: TA97A, Metabolic Activation: NONE, Method: STANDARD PLATE
  mutagenic call: inactive; negative
Test System: AMES SALMONELLA TYPHIMURIUM, Strain/Indicator: TA97A, Metabolic Activation: RAT LIVER S-9 (AROCLOR), Method: STANDARD PLATE
  mutagenic call: inactive; negative
[1]
  mutagenic call: inactive; negative
Test System: AMES SALMONELLA TYPHIMURIUM, Strain/Indicator: TA98, Metabolic Activation: RAT LIVER S-9 (AROCLOR), Method: STANDARD PLATE
  mutagenic call: inactive; negative
[2]
  mutagenic call: inactive; negative
Test System: AMES SALMONELLA TYPHIMURIUM, Strain/Indicator: TA100, Metabolic Activation: RAT LIVER S-9 (AROCLOR), Method: STANDARD PLATE
  mutagenic call: inactive; negative
Test System: AMES SALMONELLA TYPHIMURIUM, Strain/Indicator: TA102, Metabolic Activation: NONE, Method: STANDARD PLATE
  mutagenic call: inactive; negative
Test System: AMES SALMONELLA TYPHIMURIUM, Strain/Indicator: TA102, Metabolic Activation: RAT LIVER S-9 (AROCLOR), Method: STANDARD PLATE
  mutagenic call: inactive; negative
Test System: AMES SALMONELLA TYPHIMURIUM, Strain/Indicator: TA1535, Metabolic Activation: NONE, Method: STANDARD PLATE
  mutagenic call: inactive; negative
Test System: AMES SALMONELLA TYPHIMURIUM, Strain/Indicator: TA1535, Metabolic Activation: RAT LIVER S-9 (AROCLOR), Method: STANDARD PLATE
  mutagenic call: inactive; negative

## O=[N+]([O-])[C-]1CCCC1
[3]
  mutagenic call: active; positive
[4]
  mutagenic call: active; positive
Test System: AMES SALMONELLA TYPHIMURIUM, Strain/Indicator: TA102, Metabolic Activation: NONE, Method: PREINCUBATION
  mutagenic call: active; positive
Test System: AMES SALMONELLA TYPHIMURIUM, Strain/Indicator: TA102, Metabolic Activation: RAT, LIVER, S-9, AROCLOR, Method: PREINCUBATION
  mutagenic call: active; positive

## CN1CSC(=S)N(C)C1
End Point: In vivo micronucleus, Test System: Micronucleated polychromatic erythrocytes, Species: Mouse, Strain/Sex: NMRI / Males and females, Route: Oral
  mutagenic call: inactive; negative

## CCOc1cc(N=Nc2ccccc2)ccc1N=Nc1c(S(=O)(=O)O)cc2ccc(N)cc2c1O
[1]
  mutagenic call: inactive; negative
Test System: AMES SALMONELLA TYPHIMURIUM, Strain/Indicator: TA98, Metabolic Activation: RAT, LIVER, S-9, AROCLOR 1254, Method: STANDARD PLATE
  mutagenic call: active; positive
[2]
  mutagenic call: inactive; negative
Test System: AMES SALMONELLA TYPHIMURIUM, Strain/Indicator: TA100, Metabolic Activation: RAT, LIVER, S-9, AROCLOR 1254, Method: STANDARD PLATE
  mutagenic call: active; positive
Test System: AMES SALMONELLA TYPHIMURIUM, Strain/Indicator: TA1538, Metabolic Activation: NONE, Method: STANDARD PLATE
  mutagenic call: inactive; negative
Test System: AMES SALMONELLA TYPHIMURIUM, Strain/Indicator: TA1538, Metabolic Activation: RAT, LIVER, S-9, AROCLOR 1254, Method: STANDARD PLATE
  mutagenic call: active; positive

## CO[C@]1(CC[C@@H](C)CO[C@@H]2O[C@H](CO)[C@@H](O)[C@H](O)[C@H]2O)O[C@H]2C[C@H]3[C@@H]4CC=C5C[C@@H](O[C@@H]6O[C@H](CO)[C@@H](O)[C@H](O[C@@H]7O[C@H](CO)[C@@H](O)[C@H](O)[C@H]7O)C6O[C@@H]6O[C@@H](C)[C@H](O)[C@@H](O)[C@H]6O)CC[C@]5(C)[C@H]4CC[C@]3(C)[C@H]2[C@@H]1C (stereo partly specified)
[1]
  mutagenic call: inactive; negative
Test System: AMES SALMONELLA TYPHIMURIUM, Strain/Indicator: TA98, Metabolic Activation: RAT, LIVER, S-9, PHENOBARBITAL, Method: STANDARD PLATE
  mutagenic call: inactive; negative
[2]
  mutagenic call: inactive; negative
Test System: AMES SALMONELLA TYPHIMURIUM, Strain/Indicator: TA100, Metabolic Activation: RAT, LIVER, S-9, PHENOBARBITAL, Method: STANDARD PLATE
  mutagenic call: inactive; negative

## COC(=O)c1oc(NO)c(-c2ccccc2)c1-c1ccccc1
Test System: AMES SALMONELLA TYPHIMURIUM, Strain/Indicator: TA98, Metabolic Activation: NONE, Method: PREINCUBATION
  mutagenic call: inactive; negative
Test System: AMES SALMONELLA TYPHIMURIUM, Strain/Indicator: TA98, Metabolic Activation: RAT, LIVER, S-9, AROCLOR, Method: PREINCUBATION
  mutagenic call: inactive; negative
[3]
  mutagenic call: inactive; negative
[4]
  mutagenic call: inactive; negative

## OC1C2OC2c2cccc3c2C1(O)c1ccccc1-3 (stereo unspecified)
Test System: AMES SALMONELLA TYPHIMURIUM, Strain/Indicator: TM677, Metabolic Activation: NONE, Method: PREINCUBATION
  mutagenic call: inactive; negative
Test System: AMES SALMONELLA TYPHIMURIUM, Strain/Indicator: TM677, Metabolic Activation: RAT, LIVER, POSTMITOCHONDRIAL SUPERNATANT, AROCLOR 1254, Method: PREINCUBATION
  mutagenic call: inactive; negative

## O=C1c2cc(O)cc(O)c2C(=O)c2c1cc1c(c2O)[C@@H]2C=CO[C@@H]2O1
Test System: UDS RODENT HEPATOCYTES, Strain/Indicator: THY INCORP, Metabolic Activation: NONE, Method: AUTORADIOGRAPHY
  mutagenic call: active; positive

## Cc1ncc(CNC(=O)N(CCCl)N=O)c(N)n1
[1]
  mutagenic call: active; positive
[2]
  mutagenic call: active; positive
Test System: E. COLI, Strain/Indicator: WP2 (HCR), Metabolic Activation: NONE, Method: STANDARD PLATE
  mutagenic call: active; positive

## CC(O)CC(=O)Nc1ccc(O)cc1 (stereo unspecified)
Test System: AMES SALMONELLA TYPHIMURIUM, Strain/Indicator: TA100, Metabolic Activation: HAMSTER, LIVER, S-9, KANECHLOR 400, Method: PREINCUBATION
  mutagenic call: inactive; negative
[3]
  mutagenic call: inactive; negative

## CCC(C)Br (stereo unspecified)
Test System: AMES SALMONELLA TYPHIMURIUM, Strain/Indicator: TA100, Metabolic Activation: NONE, Method: DESICCATOR
  mutagenic call: active; positive
Test System: AMES SALMONELLA TYPHIMURIUM, Strain/Indicator: TA100, Metabolic Activation: RAT, LIVER, S-9, AROCLOR 1254, Method: DESICCATOR
  mutagenic call: active; positive
Test System: AMES SALMONELLA TYPHIMURIUM, Strain/Indicator: TA1535, Metabolic Activation: NONE, Method: DESICCATOR
  mutagenic call: active; positive
Test System: AMES SALMONELLA TYPHIMURIUM, Strain/Indicator: TA1535, Metabolic Activation: RAT, LIVER, S-9, AROCLOR 1254, Method: DESICCATOR
  mutagenic call: active; positive
